What was measured:
[1] = in vitro
[2] = system: EBOV-GP-pseudotyped virus (pEBOV); assay: microbe, parasite or virus in culture; details: for inhibition at 10 µM: Zaire ebolavirus, Vero C1008, read-out: %inh@10 μM (pEBOV); for EC50: Vesicular stomatitis virus, Vero C1008, 24 h, read-out: EC50 (pEBOV)
[3] = system: EBOV-GP-pseudotyped virus (pEBOV)
[4] = system: VSV-G-pseudotype virus (pVSV-G); assay: microbe, parasite or virus in culture; assay type: cell-based; details: Vesicular stomatitis virus, read-out: %inh@10µM (pVSV-G)
[5] = system: wild-type Zaire EBOV Mayinga 1976 strain (EBOV May); assay: microbe, parasite or virus in culture; details: Zaire ebolavirus, Vero C1008, 72 h, read-out: EC50 (EBOV May)
[6] = system: wild-type Zaire EBOV Mayinga 1976 strain (EBOV May)

Structure (SMILES) | CC50 ([1]; chlorocebus sabaeus) [µM] | inhibition at 10 µM [2] [%] | further results
O=C(Nc1ccc(Cl)cc1)c1ccc(-c2ccccc2)s1 [compound 3] | > 100 | < 75 | –
O=C(c1ccc(-c2ccccc2OC2CCNCC2)s1)N1CCCC1 [compound 52, (5-(2-(Piperidin-4-yloxy)phenyl)thiophen-2-yl)(pyrrolidin-1-yl)methanone] | > 100 | -116 | antiviral activity against pEBOV (in words) [3]: completely inactive; inhibition at 10 µM [4]: -108%
O=C(NCCc1ccccc1)c1ccc(-c2ccc(O)cc2)s1 [compound 30] | > 200 | -63 | –
O=C(Nc1cccc(Cl)c1)c1ccc(-c2ccc(OC3CCNCC3)cc2)s1 [compound 59, N-(3-Chlorophenyl)-5-(4-(piperidin-4-yloxy)phenyl)thiophene-2-carboxamide] | – | – | CC50 at 24 h ([1]; chlorocebus sabaeus): 26 µM; SI (CC50/EC50) [3]: 3.8; EC50 [5]: 1.19 µM; EC50 [2]: 7.91 µM; inhibition at 10 µM [4]: 5%; SI (CC50/EC50) [6]: 21.8
O=C(Nc1ccccc1)c1ccc(-c2ccccc2)s1 [compound 2] | > 100 | < 75 | –
O=C(Nc1ccccc1)c1cnc(-c2cccc(OC3CCNCC3)c2)s1 [compound 98, N-Phenyl-2-(3-(piperidin-4-yloxy)phenyl)thiazole-5-carboxamide] | – | -8 | inhibition at 10 µM [4]: -18%
O=C(Nc1ccc(N2CCOCC2)cc1)c1ccc(-c2ccccc2O)s1 [compound 20] | > 100 | -23 | –
O=C(NCCc1ccccc1)c1ccc(-c2ccccc2)s1 [compound 5] | > 100 | < 75 | CC50 ([1]; African green monkey): 100 µM; EC50 [5]: > 100 µM
O=C(Nc1ccccc1)c1cnc(-c2ccc(OC3CCNCC3)cc2)s1 [compound 78, N-Phenyl-2-(4-(piperidin-4-yloxy)phenyl)thiazole-5-carboxamide] | – | -96 | CC50 at 24 h ([1]; chlorocebus sabaeus): 50 µM; inhibition at 10 µM [4]: -32%
O=C(NCCc1ccccc1)c1ccc(-c2cccc(OC3CCNCC3)c2)s1 [compound 56, N-Phenethyl-5-(3-(piperidin-4-yloxy)phenyl)thiophene-2-carboxamide] | – | – | CC50 at 24 h ([1]; chlorocebus sabaeus): 10 µM; SI (CC50/EC50) [3]: 1.98; EC50 [5]: 4.93 µM; EC50 [2]: 5.03 µM; inhibition at 10 µM [4]: -182%; SI (CC50/EC50) [6]: 2.0
O=C(Nc1ccccc1)c1ccc(-c2ccccc2O)s1 [compound 16] | > 100 | -36 | –
O=C(NCCC1CCN(Cc2ccccc2)CC1)c1ccc(-c2ccc(OC3CCNCC3)cc2)s1 [compound 63, N-(2-(1-Benzylpiperidin-4-yl)ethyl)-5-(4-(piperidin-4-yloxy)phenyl)thiophene-2-carboxamide] | > 100 | 58 | antiviral activity against pEBOV (in words) [3]: completely inactive; inhibition at 10 µM [4]: 12%
O=C(NCCc1ccccc1)c1ccc(-c2ccccc2OC2CCNCC2)o1 [compound 102, N-Phenethyl-5-(2-(piperidin-4-yloxy)phenyl)furan-2-carboxamide] | – | – | CC50 at 24 h ([1]; chlorocebus sabaeus): 27.6 µM; SI (CC50/EC50) [3]: 12.77; EC50 [5]: 6.19 µM; EC50 [2]: 2.16 µM; inhibition at 10 µM [4]: -23%; SI (CC50/EC50) [6]: 4.5
CC(C)(C)OC(=O)N1CCC(Oc2ccccc2-c2ccc(C(=O)Nc3cccc(Cl)c3)s2)CC1 [compound 34, tert-butyl 4-(2-(5-((3-chlorophenyl)carbamoyl)thiophen-2-yl)phenoxy)piperidine-1-carboxylate] | > 100 | -36 | antiviral activity against pEBOV (in words) [3]: complete loss of activity
O=C(Nc1cccc(Cl)c1)c1ccc(-c2ccccc2OC2CCNCC2)s1 [compound 48, N-(3-Chlorophenyl)-5-(2-(piperidin-4-yloxy)phenyl)thiophene-2-carboxamide] | – | – | CC50 at 24 h ([1]; chlorocebus sabaeus): 22.3 µM; SI (CC50/EC50) [3]: 4.8; EC50 [5]: 1.3 µM; EC50 [2]: 4.65 µM; SI (CC50/EC50) [6]: 17.1
O=C(NCCC1CCN(Cc2ccccc2)CC1)c1ccc(-c2ccc(O)cc2)s1 [compound 31] | > 100 | 41 | –
O=C(Nc1cccc(Cl)c1)c1ccc(-c2ccccc2)s1 [compound 4] | > 100 | < 75 | EC50 [5]: > 100 µM
O=C(NCCc1ccccc1)c1ccc(-c2ccc(OC3CCNCC3)cc2)s1 [compound 60, N-Phenethyl-5-(4-(piperidin-4-yloxy)phenyl)thiophene-2-carboxamide] | – | -8 | CC50 at 24 h ([1]; chlorocebus sabaeus): 10 µM; antiviral activity against pEBOV (in words) [3]: completely inactive; inhibition at 10 µM [4]: -12%

Structure (SMILES) | CC50 ([1]; chlorocebus sabaeus) [µM] | inhibition at 10 µM [2] [%] | further results
O=C(Nc1cccc(Cl)c1)c1ccc(-c2cccc(O)c2)s1 [compound 25] | > 200 | -20 | –
O=C(Nc1ccc(Cl)cc1)c1ccc(-c2ccccc2O)s1 [compound 17] | > 100 | -19 | –
O=C(NCCC1CCN(Cc2ccccc2)CC1)c1ccc(-c2ccccc2O)s1 [compound 21] | – | -22 | CC50 at 24 h ([1]; chlorocebus sabaeus): 70 µM
O=C(NCCC1CCN(Cc2ccccc2)CC1)c1ccc(-c2ccccc2)s1 [compound 7] | > 100 | < 75 | –
CC(C)(C)OC(=O)N1CCC(Oc2cccc(-c3ccc(C(=O)Nc4ccccc4)s3)c2)CC1 [compound 39, tert-butyl 4-(3-(5-(phenylcarbamoyl)thiophen-2-yl)phenoxy)piperidine-1-carboxylate] | – | 38 | antiviral activity against pEBOV (in words) [3]: complete loss of activity
O=C(Nc1cccc(Cl)c1)c1ccc(-c2cccc(OC3CCNCC3)c2)s1 [compound 55, N-(3-Chlorophenyl)-5-(3-(piperidin-4-yloxy)phenyl)thiophene-2-carboxamide] | – | – | CC50 at 24 h ([1]; chlorocebus sabaeus): 15 µM; EC50 [5]: 1.86 µM; EC50 [2]: 7.5 µM; inhibition at 10 µM [4]: -4%; SI (CC50/EC50) [6]: 8.0
O=C(Nc1ccc(N2CCOCC2)cc1)c1ccc(-c2ccccc2)s1 [compound 6] | > 100 | < 75 | –
O=C(Nc1cccc(Cl)c1)c1ccc(-c2ccccc2O)s1 [compound 18] | > 100 | -35 | –
O=C(c1ccc(-c2ccccc2)s1)N1CCCC1 [compound 8] | > 100 | < 75 | –
O=C(c1ccc(-c2ccccc2O)s1)N1CCCC1 [compound 22] | > 200 | 0 | –
O=C(Nc1ccccc1)c1ccc(-c2ccccc2OC2CCNCC2)o1 [compound 100, N-Phenyl-5-(2-(piperidin-4-yloxy)phenyl)furan-2-carboxamide] | – | – | CC50 at 24 h ([1]; chlorocebus sabaeus): 79 µM; SI (CC50/EC50) [3]: 3.8; EC50 [2]: 20.7 µM; inhibition at 10 µM [4]: 32%
O=C(Nc1ccc(Cl)cc1)c1ccc(-c2cccc(O)c2)s1 [compound 24] | > 200 | 16 | –
O=C(NCCc1ccccc1)c1ccc(-c2ccccc2O)s1 [compound 19] | > 100 | -22 | –
O=C(NCCc1ccccc1)c1ccc(-c2cccc(O)c2)s1 [compound 26] | > 200 | 10 | –
O=C(Nc1ccc(Cl)cc1)c1ccc(-c2ccc(O)cc2)s1 [compound 28] | > 200 | 46 | –
O=C(Nc1ccccc1)c1ccc(-c2ccccc2OC2CCN(Cc3ccccc3)CC2)s1 [compound 64] | > 200 | 27 | antiviral activity against pEBOV (in words) [3]: lacked activity
O=C(Nc1cccc(Cl)c1)c1ccc(-c2ccc(O)cc2)s1 [compound 29] | > 200 | 27 | –

— PMC11440591 (Journal of Medicinal Chemistry, 2024)
